Experimental data as given in PubChem BioAssay AID743179 (NMMLSC, 2013).
The source made the active and inactive calls.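 How the source made its calls: active means at least 15% of cells MAC1 differentiation marker positive at top dose, with half-maximal concentration under 10 µM; inactive means the rest.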

What was measured:
[1] = myeloid differentiation promoters in THP1 cells, SAR follow-up, cell-based, MAC1 flow cytometry, set 1 (AID 743179); details: THP1 MAC1+ differentiation, flow cytometry, 4 days; at 10 µM (top of the series)
[2] = tested on: THP1 MAC1+ differentiation, flow cytometry, 4 days; assay: as above

| SMILES | MAC1+ percent, differentiation [1] | EC50 [2] |
| --- | --- | --- |
| Cc1ccc(C)c(OCCn2cc(C(=O)O)c3ccccc32)c1 | 2% (inactive) |  |
| O=C(CNC(=O)c1ccc(OC(F)(F)F)cc1)N[C@@H]1CCCc2ccccc21 | 3% (inactive) |  |
| O=C(CCCNC(=O)c1ccc(Cl)c(Cl)c1)N[C@@H]1CCCc2ccccc21 | 3% (inactive) |  |
| O=C(CNC(=O)c1ccc(Cl)cc1)N[C@@H]1CCCc2ccccc21 | 4% (inactive) |  |
| CC(NC(=O)CCNC(=O)c1ccc(Cl)cc1)c1ccc(F)cc1 (stereo not given) | 6% (inactive) |  |
| CC(=O)NCCC(=O)N[C@@H]1CCCc2ccccc21 | 2% (inactive) |  |
| C[C@@H](NC(=O)CCNC(=O)c1ccc(Cl)cc1)c1ccccc1 | 5% (inactive) |  |
| Cc1cccc(C(=O)NCCC(=O)NC2CCCc3ccccc32)c1 (stereo not given) | 4% (inactive) |  |
| O=C(CCCNC(=O)c1ccc(C(F)(F)F)cc1)N[C@@H]1CCCc2ccccc21 | 2% (inactive) |  |
| O=C(CCNC(=O)c1ccc2c(c1)OC(F)(F)O2)N[C@@H]1CCCc2ccccc21 |  | 4.28 µM |
| O=C(CCNC(=O)c1ccccc1)N[C@@H]1CCCc2ccccc21 | 2% (inactive) |  |
| O=C(CCNC(=O)c1ccc(Cl)cc1)N[C@H]1CCCc2ccccc21 | 7% (inactive) |  |
| O=C(CCNC(=O)c1ccc(Cl)cc1)NC1CCCCC1 | 3% (inactive) |  |
| O=C(CCNC(=O)c1ccc(Cl)cc1)N[C@@H]1CCc2ccccc21 | 21% (inactive) |  |
| O=C(Cc1ccc(Cl)cc1)NCCC(=O)N[C@@H]1CCCc2ccccc21 | 13% (inactive) |  |
| O=C(CCNC(=O)c1ccc(Cl)c(Cl)c1)N[C@@H]1CCCc2ccccc21 | 109% (inactive) |  |
| O=C(CCNC(=O)c1ccc(OC(F)(F)F)cc1)N[C@@H]1CCCc2ccccc21 |  | 2.07 µM |
| CC(NC(=O)C1CCCN(C(=O)c2ccc(Cl)cc2)C1)c1ccccc1 (stereo not given) | 6% (inactive) |  |
| O=C(O)c1cccnc1Nc1ccc(Cl)cc1 |  | 5.49 µM |
| CC(C)(C)OC(=O)NCCC(=O)N[C@@H]1CCCc2ccccc21 | 2% (inactive) |  |

| SMILES | MAC1+ percent, differentiation [1] | EC50 [2] |
| --- | --- | --- |
| COc1ccccc1C(C)NC(=O)CCNC(=O)c1ccc(Cl)cc1 (stereo not given) | -1% (inactive) |  |
| O=C(CCNC(=O)c1ccc(Cl)cc1)N[C@@H]1CCCc2ccccc21 |  | 3.09 µM |
| O=C(CCNC(=O)c1ccc(C(F)(F)F)cc1)N[C@@H]1CCCc2ccccc21 |  | 2.49 µM |
| O=C(CNC(=O)c1ccc(C(F)(F)F)cc1)N[C@@H]1CCCc2ccccc21 | 3% (inactive) |  |
| O=C(CCNC(=O)c1ccc(F)cc1)N[C@@H]1CCCc2ccccc21 | 46% (inactive) |  |
| O=C(NC1CCc2ccccc21)C1CCCN(C(=O)c2ccc(Cl)cc2)C1 (stereo not given) | 4% (inactive) |  |
| O=C(NC1CCOc2ccccc21)C1CCCN(C(=O)c2ccc(Cl)cc2)C1 (stereo not given) | 5% (inactive) |  |
| N#Cc1ccc(C(=O)NCCC(=O)N[C@@H]2CCCc3ccccc32)cc1 | 17% (inactive) |  |
| CC(NC(=O)CCNC(=O)c1ccc(Cl)cc1)c1ccc2c(c1)OCO2 (stereo not given) | 5% (inactive) |  |
| CC(c1ccccc1)N(C)C(=O)CCNC(=O)c1ccc(Cl)cc1 (stereo not given) | 7% (inactive) |  |
| O=C(O)c1ccccc1OCc1ccccc1Br | 4% (inactive) |  |
| CC(C)(C)OC(=O)NCCC(=O)N[C@H]1CCCc2ccccc21 | 2% (inactive) |  |
| NCCC(=O)N[C@@H]1CCCc2ccccc21 | 1% (inactive) |  |
| COc1ccc(C(=O)NCCC(=O)N[C@@H]2CCCc3ccccc32)cc1 |  | 5.16 µM |
| O=C(CCCNC(=O)c1ccc(OC(F)(F)F)cc1)N[C@@H]1CCCc2ccccc21 | 3% (inactive) |  |
| O=C(CNC(=O)c1ccc(Cl)c(Cl)c1)N[C@@H]1CCCc2ccccc21 | 6% (inactive) |  |
| O=C(CCCNC(=O)c1ccc(Cl)cc1)N[C@@H]1CCCc2ccccc21 | 5% (inactive) |  |
| Cc1ccc(C(=O)NCCC(=O)N[C@@H]2CCCc3ccccc32)cc1 | 97% (inactive) |  |
| O=C(CCNC(=O)c1ccc(Cl)cc1)NC1CCCc2ccccc21 (stereo not given) |  | 3.79 µM |
| O=C(CCNC(=O)c1cccc(Cl)c1)N[C@@H]1CCCc2ccccc21 |  | 9.14 µM |
